Drawing on PubChem BioAssay (NCI), this text covers TGI and GI50 for ten compounds.

Holding throughout (assay): DTP human tumour cell line panel, 48 h
Test [1] deals with CCRF-CEM leukemia.
The subject of test [2] is KM12 colon.
For test [3], the system named is HCT-15 colon.
In test [4] the test system is UO-31 renal.
In test [5] the test system is SF-268 CNS.
Test [6] relates to HT29 colon.
The subject of test [7] is HCT-116 colon.
The subject of test [8] is EKVX NSCLC.
For test [9], the system named is A498 renal.
Test [10] relates to ACHN renal.

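Protocol summary: plate cells (96-well), add compound at 5 concentrations, incubate 48 h, interpolate endpoints linearly. Here, GI50 denotes the concentration required for 50% inhibition of growth. The concentration for full growth arrest is given as TGI.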

The TGI is the concentration giving total growth inhibition. A higher TGI goes with lower sensitivity of the cells. As for `c1ccc2c(c1)SCCCSCCSCCCS2`, the TGI in test [1], in test [2], in test [3], in test [4], in test [5] and in test [6] was above 100 µM throughout. The TGI in test [7] and in [8] was above 100 µM throughout.

Usually GI50 stands for the concentration giving 50% growth inhibition. For `COc1cc(NC(=O)CCSc2nc3ccc(C)cc3c(=O)n2Cc2ccccc2)cc(OC)c1OC`, the GI50 in test [1] is above 100 µM; in [9] it was 15.8 µM; in test [2], above 100 µM; in test [3], above 100 µM; in [10], 3.72 µM; in test [4] it was 11.6 µM. Besides, the GI50 in test [5] is 4.22 µM; in [6], above 100 µM; in test [7] it was 4.35 µM. For the same compound, the TGI is above 100 µM in test [1]; 60 µM in [9]; above 100 µM in test [2]; above 100 µM in test [3]; 34.9 µM in test [10]; above 100 µM in [4]. Also, the TGI in [5] was 49.6 µM; in [6], above 100 µM; in [7] it was above 100 µM.

`OCc1ccc(-c2cscc2-c2ccc(CO)o2)o1`: the GI50 was above 100 µM in test [1]; 0.0156 µM in test [9]; 97.4 µM in test [2]; above 80.1 µM in test [3]; above 100 µM in test [10]; 56.1 µM in [4]. Besides, the values for the GI50 in [5], in [6] and in test [7] were above 100 µM, 7.03 µM and 1.65 µM, respectively. Further, the TGI in test [1] was above 100 µM; in test [9], 0.0381 µM; in [2] it was above 100 µM; in [3], above 100 µM; in [10], above 100 µM; in [4], above 100 µM. For the same compound, the TGI in test [5] is above 100 µM; in test [6] it was above 100 µM; in test [7], above 69.5 µM.

For the compound `COc1ncnc(S(=O)(=O)c2ccc(N=C3C(=O)N(CN4CCN(c5cc6c(cc5F)c(=O)c(C(=O)O)cn6C5CC5)CC4)c4ccc(Cl)cc43)cc2)c1OC`, the GI50 in test [2] is 24.2 µM; in test [3], 19.7 µM; in test [10], 10.2 µM; in test [4], 47.2 µM; in test [5], 49 µM; in test [6] it was above 50 µM. In addition, the GI50 was 26.4 µM in test [7] and 1.24 µM in test [8]. The TGI in [2], in test [3], in test [10], in [4], in test [5] and in test [6] was above 50 µM each time. The TGI in [7] and in [8] was above 50 µM each time.

Take `Cc1ccc(S(=O)(=O)c2ccccc2[N+](=O)[O-])cc1`: the concentration for total growth inhibition (TGI) in test [1], in test [9], in test [2], in [3], in [10] and in [4] was above 100 µM each time. For the same compound, the total growth inhibition concentration (TGI) in test [6], in [7] and in test [8] was above 100 µM throughout.

`Cn1cc(C2=C(c3cn(C)c4ccc(Cl)cc34)C(=O)NC2=O)c2ccccc21`: the GI50 was 1.18 µM in [1]; 1.75 µM in [9]; 2.38 µM in test [2]; 1.35 µM in test [3]; 3.15 µM in [10]; 2.54 µM in test [4]. Moreover, the GI50 is 5.51 µM in [5], 1.23 µM in [6] and 1.52 µM in [7]. Also, the total growth inhibition concentration (TGI) was 19.2 µM in test [1]; 7.09 µM in [9]; 10.4 µM in [2]; above 25 µM in test [3]; above 25 µM in test [10]; 11.7 µM in [4]. In addition, the results for the TGI in test [5], in [6] and in test [7] were above 25 µM, 8.38 µM and 7.42 µM, respectively.

For the compound `CC(=O)[O-].[Mn+3].[O-]c1ccccc1C=NCCNCCN=Cc1ccccc1[O-]`, the GI50 in test [1] was 86.1 µM; in [2], above 100 µM; in test [3], above 100 µM; in test [10], above 100 µM; in test [4], above 100 µM; in test [5], above 100 µM. Besides, the GI50 in test [6] and in test [7] was above 100 µM each time. Further, the TGI in test [1], in test [2], in [3], in test [10], in [4] and in test [5] was above 100 µM throughout. In addition, the TGI in test [6] and in [7] was above 100 µM throughout.

In the case of `C1CC2CN(CCCN3CCOCC3)C(C1)O2` (configuration not stated), the TGI in test [9], in [2], in [3], in test [10], in test [4] and in test [5] was above 100 µM in each case. In addition, the TGI in test [6], in test [7] and in test [8] was above 100 µM each time.

With `COc1cc2c(cc1OC)C(=O)/C(=C/c1cc(-c3ccc4c(c3)OCO4)n[nH]1)C2`, the GI50 was 1.14 µM in test [1]; 1.33 µM in test [9]; 1.29 µM in test [2]; 1.12 µM in [3]; 1.73 µM in test [10]; 1.29 µM in [4]. Further, the GI50 in [5] was 1.63 µM; in [6], 1.45 µM; in [7], 1.03 µM. Besides, the TGI in test [1] turned out to be 3.61 µM; in [9] it was 2.83 µM; in test [2], 2.73 µM; in test [3], 2.81 µM; in test [10], 3.23 µM; in test [4], 2.67 µM. For the same compound, the TGI turned out to be 3.37 µM in [5], 3.09 µM in [6] and 2.55 µM in [7].

Consider `COC(=O)c1c2c(cc3c1CC1(Cc4cc5c(c(C(C)=O)c4C1)CCC5)C3)CCC2` (configuration not stated), for which the TGI in test [1], in [2], in test [10], in [4], in [5] and in test [6] was above 100 µM each time. This compound also gave a TGI in test [7] above 100 µM.
